According to US6465486B1 (Ortho-McNeil Pharmaceutical, Inc., priority 1999, dated 2002):
Where a name gives a salt, the structure may show the parent alone. Read-outs that look alike come from different tables or passages of the source.

Assays:
[1] = target: T1, Alpha-2D Adrenergic Receptor (Rattus norvegicus, UniProt P22909); assay: Alpha-2D Adrenergic Receptor Binding Assay (3H-para-aminoclonidine, rat cortex membranes); conditions: for % inh of α2D: cells printed with % sign, test concentration not given
T1 construct: aliquots of the synaptic membrane fraction, the ligand ^3H-para-aminoclonidine and test drug; from tissue; host or cells: rat brain cortex, synaptic membrane fraction
T1 sequence (P22909 1-465): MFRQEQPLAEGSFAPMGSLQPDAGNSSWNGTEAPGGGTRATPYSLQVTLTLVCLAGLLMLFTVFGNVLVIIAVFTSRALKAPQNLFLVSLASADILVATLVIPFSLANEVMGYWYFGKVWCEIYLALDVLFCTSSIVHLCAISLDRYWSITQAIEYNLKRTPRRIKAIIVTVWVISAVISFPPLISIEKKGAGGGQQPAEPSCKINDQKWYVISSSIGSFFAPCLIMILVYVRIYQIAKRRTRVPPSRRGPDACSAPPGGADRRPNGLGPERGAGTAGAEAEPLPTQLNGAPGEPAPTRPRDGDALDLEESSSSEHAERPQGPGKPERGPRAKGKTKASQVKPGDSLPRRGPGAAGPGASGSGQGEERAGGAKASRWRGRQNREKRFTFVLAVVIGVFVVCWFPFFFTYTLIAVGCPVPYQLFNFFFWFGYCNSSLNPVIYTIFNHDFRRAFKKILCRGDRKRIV
Description: Alpha-2D Adrenergic Receptor Binding Assay
Male, Wistar rats (150-250 g, VAF, Charles River, Kingston, N.Y.) are sacrificed by cervical dislocation and their brains removed and placed immediately in ice cold HEPES buffered sucrose. The cortex is dissected out and homogenized in 20 volumes of HEPES sucrose in a Teflon™-glass homogenizer. The homogenate is centrifuged at 1000 g for 10 min, and the resulting supernatant centrifuged at 42,000 g for 10 min. The resulting pellet is resuspended in 30 volumes of 3 mM potassium phosphate buffer, pH 7.5, preincubated at 25° C. for 30 min and recentrifuged. The resulting pellet is resuspended as described above and used for the receptor binding assay. […] The incubation is terminated by filtration of the tube contents through glass fiber filter sheets. Following washing of the sheets with 10 mM HEPES buffer, the adhering radioactivity is quantified by liquid scintillation spectrometry.
Binding of the test drug to the receptor is determined by comparing the amount of radiolabeled ligand bound in control tubes without drug to the amount of radiolabeled ligand bound in the presence of the drug. Dose-response data are analyzed with LIGAND, a nonlinear curve fitting program designed specifically for the analysis of ligand binding data.

[2] = system: mouse acetylcholine bromide-induced abdominal constriction; assay: Mouse Acetylcholine Bromide-Induced Abdominal Constriction Assay (MAIT); type: in vivo; conditions: po; dose not given; acetylcholine bromide 5.5 mg/kg i.p. 30 minutes after drug
Description: Mouse Acetylcholine Bromide-Induced Abdominal Constriction Assay (MAIT)
The mouse acetylcholine bromide-induced abdominal constriction assay, as described by Collier et al. in Brit. J. Pharmacol. Chem. Ther., 32: 295-310, 1968, with minor modifications was used to assess analgesic potency of the compounds herein. The test drugs or appropriate vehicle were administered orally (p.o.) and 30 minutes later the animal received an intraperitoneal (i.p.) injection of 5.5 mg/kg acetylcholine bromide (Matheson, Coleman and Bell, East Rutherford, N.J.). The mice were then placed in groups of three into glass bell jars and observed for a ten minute observation period for the occurrence of an abdominal constriction response (defined as a wave of constriction and elongation passing caudally along the abdominal wall, accompanied by a twisting of the trunk and followed by extension of the hind limbs). The percent inhibition of this response to a nociceptive, stimulus (equated to % analgesia) was calculated as follows: The % Inhibition of response, i.e., % analgesia is equal to the difference between the number of control animals responding and the number of drug-treated animals responding times 100 divided by the number of control animals responding.
At least 15 animals were used for control and in each of the drug treated groups. […] The ED50 values and their 95% fiducial limits were determined by a computer assisted probit analysis.

Cl.Cl.c1cncc(Cc2c[nH]cn2)c1 [Cp-3]
% inh of α2D [1]: 89% | % inh of MAIT [2]: 47 po %

c1ccc(C(c2ccccn2)c2c[nH]cn2)cc1 (stereo not shown) [Cp-7, 4-[(Pyridin-2-yl)methylphenyl]-1H-imidazole]
Ki ([1]; rat cortex synaptic membranes, ligand 3H-para-aminoclonidine, cells without % sign, read-out: α2D Ki): 1000 nM | % inh of MAIT [2]: 13 po %

Cc1ncccc1Cc1c[nH]cn1.Cl.Cl [Cp-1, 4-[(2-Methylpyrid-3-yl)methyl]-1H-imidazole Dihydrochloride]
Ki [1]: 7.1 nM | % inh of MAIT [2]: 93 po % | melting point: 236 to 237.5 °C

Cc1ncccc1CCc1c[nH]cn1.Cl.Cl [Cp-2, 4-[(2-Methylpyrid-3-yl)ethyl]-1H-imidazole Dihydrochloride]
melting point: 258.5 to 263 °C

c1ccc2nc(Cc3c[nH]cn3)ccc2c1 [Cp-9]
Ki [1]: 1.6 nM | % inh of MAIT [2]: 20 po %

Brc1cncc(Cc2c[nH]cn2)c1.O=C(O)/C=C/C(=O)O [Cp-4, 4-[(5-Bromopyridin-3-yl)methyl]-1H-imidazole Fumarate]
% inh of α2D [1]: 83% | % inh of MAIT [2]: 54 po % | melting point: 139 to 145 °C

Cl.c1ccc(Cc2c[nH]cn2)nc1 [Cp-6, 4-[(Pyridin-2-yl)methyl]-1H-imidazole Hydrochloride]
% inh of α2D [1]: 83% | % inh of MAIT [2]: 40 po % | melting point: 197 to 200 °C

Cc1ncccc1C(C)c1c[nH]cn1 (stereo not shown) [Dihydrochloride]
% inh of MAIT [2]: 33 po %

CC(c1cncc(Br)c1)c1c[nH]cn1 (stereo not shown) [Fumarate]
% inh of MAIT [2]: 53 po %

Brc1cncc(CCc2c[nH]cn2)c1.O=C(O)/C=C/C(=O)O [Cp-5, 4-[(5-Bromopyridin-3-yl)ethyl]-1H-imidazole Fumarate]
melting point: 156 to 158 °C
